Data published in patent publication US6376198B1, “Assay for non-peptide agonists to peptide hormone receptors” (New England Medical Center Hospitals, Inc., priority 1995, dated 2002).
Residue numbers refer to the chain shown, from its start. “Also recorded” adds a separate entry of the source.

Assays:
[1] = biological target: T1, human CCK-B/gastrin receptor (wild-type) (Homo sapiens, UniProt P32239); test: 125I-CCK-8 competition binding, COS-7 cells expressing wild-type receptor; settings: for Ratio (Wild-type/Mutant) of Ki: binding affinities; for Ki: wild-type receptor, read-out: Wild-type receptor Ki(nM), 125I CCK-8 binding affinity
T1 construct: expressed in transfected cells; host or cells: COS-7
T1 sequence (P32239 1-447): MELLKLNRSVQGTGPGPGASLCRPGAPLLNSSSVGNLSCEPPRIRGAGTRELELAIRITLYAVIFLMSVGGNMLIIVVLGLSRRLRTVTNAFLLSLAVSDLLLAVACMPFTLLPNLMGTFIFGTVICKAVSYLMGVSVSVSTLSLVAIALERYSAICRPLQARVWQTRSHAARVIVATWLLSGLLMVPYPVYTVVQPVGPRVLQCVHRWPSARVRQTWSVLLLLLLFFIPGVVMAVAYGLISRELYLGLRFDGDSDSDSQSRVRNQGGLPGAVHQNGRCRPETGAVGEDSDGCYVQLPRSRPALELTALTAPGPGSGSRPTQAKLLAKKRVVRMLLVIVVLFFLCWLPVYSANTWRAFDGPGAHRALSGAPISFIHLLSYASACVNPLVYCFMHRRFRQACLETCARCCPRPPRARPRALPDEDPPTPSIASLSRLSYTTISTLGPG
Experimental: (§1) The binding of a ligand to a CCK receptor, e.g., the CCK-A or the CCK-B/gastrin receptor, can be measured according to the following example. In this example, the binding affinity of a ligand to the human CCK-B/gastrin receptor is measured.
(§2) Twenty-four hours after transfection cells were split into 24-well dishes (2×10^4 cells/well) (Costar). After an additional 24 hours, competition binding experiments were performed in Hank's buffer supplemented with 25 mM phenylmethylsulfonyl fluoride (PMSF). […] Equilibrium binding occurred after incubation for 80 min. at 37° C. Cell monolayers were then washed three times, hydrolyzed in 1 N NaOH, and the amount of radioactivity to the receptor was quantified.
(§3) The competition data were analyzed using computer software which is specifically designed for the purpose of radioligand binding assays (Inplot 4.0, GraphPad, San Diego, Calif.).

[2] = biological target: T2, human CCK-B/gastrin receptor 325L→E mutant (Homo sapiens, UniProt P32239, L325E); test: 125I-CCK-8 competition binding, COS-7 cells expressing constitutively active mutant; settings: read-out: 325L→E Mutant Ki(nM), 125I CCK-8 binding affinity
T2 construct: expressed in transfected cells; host or cells: COS-7
T2 sequence (P32239 1-447 L325E): T1 sequence (P32239 1-447) with L325E
Experimental: as §1
as §2, with “quantified. […] All binding experiments were repeated three to five times.” for “quantified.”
as §3

[3] = biological target: T2, human CCK-B/gastrin receptor 325L→E mutant; test: Total inositol phosphate production, COS-7 cells expressing constitutively active mutant; type: cell-based; settings: for intrinsic activity / functional classification: constitutively active 325L→E mutant; for IC50: 325L→E mutant, 95% C.I. in brackets, read-out: 325L→E Mutant IC50(nM) 95% C.I., signaling potency
[4] = biological target: T1, human CCK-B/gastrin receptor (wild-type); test: Total inositol phosphate production, COS-7 cells expressing wild-type receptor; type: cell-based; settings: for IC50: 95% C.I. in brackets, read-out: Wild-type receptor IC50(nM) 95% C.I., signaling potency
[5] = biological target: Xenopus CCK receptor (Xenopus laevis, UniProt P70031); settings: single experiment
Chain of Xenopus CCK receptor (P70031 whole entry): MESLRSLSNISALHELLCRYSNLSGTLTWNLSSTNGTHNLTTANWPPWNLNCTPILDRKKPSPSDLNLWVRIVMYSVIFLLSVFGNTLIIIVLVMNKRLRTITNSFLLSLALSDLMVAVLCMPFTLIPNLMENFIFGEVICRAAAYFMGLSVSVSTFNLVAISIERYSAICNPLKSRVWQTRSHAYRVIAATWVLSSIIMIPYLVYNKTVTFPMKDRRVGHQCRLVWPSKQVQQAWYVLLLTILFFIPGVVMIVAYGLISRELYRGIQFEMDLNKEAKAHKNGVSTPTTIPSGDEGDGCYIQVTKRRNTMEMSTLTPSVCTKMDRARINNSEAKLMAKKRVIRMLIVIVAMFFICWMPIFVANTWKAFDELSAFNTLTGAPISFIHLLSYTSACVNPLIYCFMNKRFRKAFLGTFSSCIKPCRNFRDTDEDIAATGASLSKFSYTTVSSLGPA
Experimental: COS-7 cells transfected with receptor cDNA-pcDNAI were cultured in inositol-free, serum-free Dulbecco's modified Eagle's medium (DMEM, GIBCO), supplemented with 3 μCi/ml ^3 H-myo-inositol (NEN, 45-80 Ci/mmol), for 18 hours prior to analysis. The cells were then washed twice with DMEM/10 mM LiCl2 and twice with phosphate-buffered saline/10 mM LiCl2. After stimulation with putative agonists in phosphate-buffered saline 10/mM LiCl2 for 30 minutes at 37° C., cells were scraped in ice-cold methanol. […] The upper phase was analyzed for inositol phosphates by strong anion exchange chromatography, using Dowex 1-X8 columns (BIORAD) and differential elution with water/60 mM ammonium fornate/2 M ammonium fornate. Eluted radioactivity was measured by liquid scintillation counting, and inositol phosphate content was expressed as a percentage of total ^3H-radioactivity applied to the columns.
In FIG. 11, basal levels of inositol phosphate production were measured for human CCK-A hCCK-A), human CCK-B (hCCK-B), dog CCK-B (dCCK-B), mouse CCK-B (mCCK-B), and the mastomys CCK receptor (FIG. 11, part A), and expressed relative to the basal level of hCCK-B.
Single experiments were also performed for the rat CCK-B/gastrin receptor and for the related Xenopus CCK receptor (Table 2).

[6] = biological target: human wild-type CCK-B receptor (Homo sapiens, UniProt P32239); settings: 10^-7 M
Experimental: Measurement of [Ca^2+]: Forty-eight hours after transfection with hCCKB-pcDNAI, COS-7 cells were loaded with the Ca^2+ fluorophore fura-2 in modified Krebs-Ringer bicarbonate buffer. […] Extracellular calcium can be chelated with EGTA (2.5 mM) to confirm that a gastrin-induced increase in [Ca^2+] originates primarily from intracellular [Ca^2+] pools.

[7] = tested on: rat CCK-A; settings: single experiment
[8] = biological target: T3, mutant human CCK-A receptor pMHA35 (Homo sapiens, UniProt P32238, E138Q); test: Intrinsic activity at mutant CCK-A receptor pMHA35 (138-ERY-140 to QRY); type: cell-based; settings: basal signaling not increased
T3 construct: expressed in transfected cells; host or cells: COS-7 (inferred from the general inositol phosphate method)
T3 sequence (P32238 1-428 E138Q): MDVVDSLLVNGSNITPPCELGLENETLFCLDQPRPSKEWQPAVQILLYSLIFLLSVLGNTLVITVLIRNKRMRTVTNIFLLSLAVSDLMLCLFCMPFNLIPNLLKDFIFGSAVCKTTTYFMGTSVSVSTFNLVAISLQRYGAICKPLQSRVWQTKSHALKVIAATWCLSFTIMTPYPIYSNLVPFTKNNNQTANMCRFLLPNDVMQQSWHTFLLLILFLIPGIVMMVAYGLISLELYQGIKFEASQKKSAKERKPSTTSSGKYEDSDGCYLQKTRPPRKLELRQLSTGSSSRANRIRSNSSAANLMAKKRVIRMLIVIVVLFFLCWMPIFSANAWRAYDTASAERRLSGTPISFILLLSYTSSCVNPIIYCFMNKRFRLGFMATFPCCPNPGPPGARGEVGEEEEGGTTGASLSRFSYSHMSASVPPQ
From the text: An example is given of a mutant human CCK-A receptor that enhances the intrinsic activity of the partial ‘peptoid’ agonist PD 135,158, yet causes no apparent increase in agonist-independent basal receptor activity, is the mutant CCK-A receptor pMHA35. pMHA35 was made by replacing amino acids 138-ERY-140 of the human wild-type CCK-A receptor with QRY in the vector pcDNAI. (See FIG. 2 for an illustration of the wild-type CCK-A receptor amino acid sequence.)
This method, based on alignment, was employed to construct a CCK-A mutant receptor. A multiple alignment map was made which included the human and rat CCK-A sequences, the mastomys, rat, human, and canine CCK-B/gastrin receptor, and a Xenopus CCK-A/CCK-B intermediate receptor (CCK-XL; FIG. 2). Based on this map, conserved amino acids 138-ERY-140 of the CCK-A receptor were replaced with amino acids QRY, based on a known constitutively active rhodopsin mutant with enhanced transducin activation (Arnis et al., J. Biol. Chem., 269:23879-81, 1994). The altered amino acid residues are positioned in transmembrane domain III and flank the second intracellular loop.

Compound	Ratio (Wild-type/Mutant) of Ki [1]	Ki [1] [nM]	Ki [2] [nM]	intrinsic activity / functional classification [3]	intrinsic activity / functional classification ([4]; wild-type receptor)	also measured
azabicyclo[3.2.2]nonane benzodiazepine [L-740,093 R]	1.06	0.19 ± 0.02	0.18 ± 0.04	reduces the basal activity of the constitutively active receptor almost to wild-type levels		
azabicyclo[3.2.2]nonane benzodiazepine [L-740,093 S]	1.22	19.5 ± 1.5	16 ± 1.4	almost a full agonist		efficacy compared with CCK-8s (inositol phosphate) ([4]; human wild-type receptor): 25%
Cc1cccc(NC(=O)N[C@@H]2N=C(c3ccccc3)c3ccccc3N(C)C2=O)c1 [L-365,260]					barely detectable, yet significant, increase in inositol phosphate production	efficacy compared to the full agonist CCK-8s (inositol phosphate) ([3]; 325L→E constitutively active mutant): 62%
CCK-8s						CCK-8s stimulated (% human basal) inositol phosphate [5]: 442 % human basal; change in free cytosolic calcium [Ca2+]i [6]: marked increase in free cytosolic calcium; CCK-8s stimulated (% human basal) inositol phosphate [7]: 684 % human basal
Cc1cccc(NC(=O)N[C@@H]2N=C(c3ccccc3)c3ccccc3N(CC(=O)c3ccccc3C)C2=O)c1 [YM022]	0.88	0.07 ± 0.01	0.08 ± 0.01	almost no intrinsic activity; also recorded: weak inverse agonist	almost no intrinsic activity	pA2, block of CCK-8s induced inositol phosphate production ([4]; wild-type receptor, agonist CCK-8s): 9.78; pA2, block of CCK-8s induced inositol phosphate production ([3]; constitutively active receptor, agonist CCK-8s): 9.37; pA2, block of L-740,093 S induced inositol phosphate production ([3]; constitutively active receptor, agonist L-740,093 S (FIG. 4)): 9.54
C[C@](Cc1c[nH]c2ccccc12)(NC(=O)OC1C2CC3CC(C2)CC1C3)C(=O)NC[C@H](NC(=O)/C=C/C(=O)O)c1ccccc1 (stereo partly drawn) [PD 136,450]	1.68	0.99 ± 0.1	0.59 ± 0.12	almost full agonists	partial agonists	Ratio (Wild-type/Mutant) of signaling potencies [4]: 0.62; IC50 ([4]; wild-type receptor): 0.36 nM; IC50 [3]: 0.58 nM
CC1(C)[C@H]2CC[C@@]1(C)[C@H](OC(=O)N[C@](C)(Cc1c[nH]c3ccccc13)C(=O)NC[C@H](NC(=O)CCC(=O)O)c1ccccc1)C2 [PD 135,158]	2.23	2.25 ± 0.61	1.01 ± 0.19	almost full agonists	partial agonists	Ratio (Wild-type/Mutant) of signaling potencies [4]: 1.04; IC50 ([4]; wild-type receptor): 1.05 nM; IC50 [3]: 1.01 nM; intrinsic activity at mutant versus wild-type CCK-A receptor [8]: significantly increased
